Key:
Assay type in all cases: binding
[1] = target: T1, ADAAD (Active DNA-dependent ATPase A domain) (Bos taurus, UniProt Q9TTA5, R815A); test: intrinsic tryptophan fluorescence titration (ex […] nm, em […] nm), one-site fit
T1 construct: gene SMARCAL1; ATPase domain fragment of bovine SMARCAL1 (RecA-like domains 1 and 2), plasmid pCP101 (pET-14b, NdeI/XhoI), E. coli BL21(DE3), Ni-NTA then DEAE-sepharose; tag removal not mentioned

[2] = target: T2, ADAAD (Active DNA-dependent ATPase A domain) (Bos taurus, UniProt Q9TTA5, H814A); test: as above
T2 construct: gene SMARCAL1; ATPase domain fragment of bovine SMARCAL1 (RecA-like domains 1 and 2), plasmid pCP101 (pET-14b, NdeI/XhoI), E. coli BL21(DE3), Ni-NTA then DEAE-sepharose; tag removal not mentioned
T2 sequence (Q9TTA5 221-940 H814A limits assumed): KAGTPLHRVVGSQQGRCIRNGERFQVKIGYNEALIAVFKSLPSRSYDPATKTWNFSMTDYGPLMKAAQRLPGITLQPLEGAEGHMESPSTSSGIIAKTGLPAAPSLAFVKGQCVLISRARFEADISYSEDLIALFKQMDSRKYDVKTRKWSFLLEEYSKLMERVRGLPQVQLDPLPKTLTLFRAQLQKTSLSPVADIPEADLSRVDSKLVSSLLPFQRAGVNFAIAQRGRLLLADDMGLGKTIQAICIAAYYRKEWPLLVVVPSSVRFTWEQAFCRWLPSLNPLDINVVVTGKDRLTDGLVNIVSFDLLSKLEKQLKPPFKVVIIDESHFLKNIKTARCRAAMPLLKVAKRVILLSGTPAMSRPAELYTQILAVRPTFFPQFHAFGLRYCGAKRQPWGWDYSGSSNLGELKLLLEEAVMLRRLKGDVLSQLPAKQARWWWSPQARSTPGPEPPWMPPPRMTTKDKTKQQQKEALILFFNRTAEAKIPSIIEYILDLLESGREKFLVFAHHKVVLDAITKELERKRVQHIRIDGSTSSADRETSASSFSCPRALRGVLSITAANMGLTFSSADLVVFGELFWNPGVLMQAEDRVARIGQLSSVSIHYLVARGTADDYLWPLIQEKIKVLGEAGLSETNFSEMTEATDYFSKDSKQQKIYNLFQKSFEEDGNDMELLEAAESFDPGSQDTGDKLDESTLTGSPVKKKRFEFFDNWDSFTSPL

[3] = target: T3, ADAAD (Active DNA-dependent ATPase A domain) (Bos taurus, UniProt Q9TTA5, R815H); test: as above
T3 construct: gene SMARCAL1; ATPase domain fragment of bovine SMARCAL1 (RecA-like domains 1 and 2), plasmid pCP101 (pET-14b, NdeI/XhoI), E. coli BL21(DE3), Ni-NTA then DEAE-sepharose; tag removal not mentioned
T3 sequence (Q9TTA5 221-940 R815H limits assumed): as the sequence (Q9TTA5 221-940 H814A limits assumed) above, with A594H, R595H counted along it

[4] = target: T4, ADAAD (Active DNA-dependent ATPase A domain) (Bos taurus, UniProt Q9TTA5, F727A/R812A); test: as above
T4 construct: gene SMARCAL1; ATPase domain fragment of bovine SMARCAL1 (RecA-like domains 1 and 2), plasmid pCP101 (pET-14b, NdeI/XhoI), E. coli BL21(DE3), Ni-NTA then DEAE-sepharose; tag removal not mentioned
T4 sequence (Q9TTA5 221-940 F727A/R812A limits assumed): as the sequence (Q9TTA5 221-940 H814A limits assumed) above, with F507A, R592A, A594H counted along it

[5] = target: T5, ADAAD (Active DNA-dependent ATPase A domain) (Bos taurus, UniProt Q9TTA5, T780A); test: as above
T5 construct: gene SMARCAL1; ATPase domain fragment of bovine SMARCAL1 (RecA-like domains 1 and 2), plasmid pCP101 (pET-14b, NdeI/XhoI), E. coli BL21(DE3), Ni-NTA then DEAE-sepharose; tag removal not mentioned
T5 sequence (Q9TTA5 221-940 T780A limits assumed): as the sequence (Q9TTA5 221-940 H814A limits assumed) above, with T560A, A594H counted along it

[6] = target: T6, ADAAD (Active DNA-dependent ATPase A domain) (Bos taurus, UniProt Q9TTA5, R815K); test: as above
T6 construct: gene SMARCAL1; ATPase domain fragment of bovine SMARCAL1 (RecA-like domains 1 and 2), plasmid pCP101 (pET-14b, NdeI/XhoI), E. coli BL21(DE3), Ni-NTA then DEAE-sepharose; tag removal not mentioned
T6 sequence (Q9TTA5 221-940 R815K limits assumed): as the sequence (Q9TTA5 221-940 H814A limits assumed) above, with A594H, R595K counted along it

[7] = target: T7, ADAAD (Active DNA-dependent ATPase A domain) (Bos taurus, UniProt Q9TTA5, D811H); test: as above
T7 construct: gene SMARCAL1; ATPase domain fragment of bovine SMARCAL1 (RecA-like domains 1 and 2), plasmid pCP101 (pET-14b, NdeI/XhoI), E. coli BL21(DE3), Ni-NTA then DEAE-sepharose; tag removal not mentioned
T7 sequence (Q9TTA5 221-940 D811H limits assumed): as the sequence (Q9TTA5 221-940 H814A limits assumed) above, with D591H, A594H counted along it

[8] = target: T8, ADAAD (Active DNA-dependent ATPase A domain) (Bos taurus, UniProt Q9TTA5, F727W); test: as above
T8 construct: gene SMARCAL1; ATPase domain fragment of bovine SMARCAL1 (RecA-like domains 1 and 2), plasmid pCP101 (pET-14b, NdeI/XhoI), E. coli BL21(DE3), Ni-NTA then DEAE-sepharose; tag removal not mentioned
T8 sequence (Q9TTA5 221-940 F727W limits assumed): as the sequence (Q9TTA5 221-940 H814A limits assumed) above, with F507W, A594H counted along it

[9] = target: T9, ADAAD (Active DNA-dependent ATPase A domain) (Bos taurus, UniProt Q9TTA5); test: intrinsic tryptophan fluorescence titration (ex […] nm, em […] nm); details: representative spectra only
T9 construct: gene SMARCAL1; ATPase domain fragment of bovine SMARCAL1 (RecA-like domains 1 and 2), plasmid pCP101 (pET-14b, NdeI/XhoI), E. coli BL21(DE3), Ni-NTA then DEAE-sepharose; tag removal not mentioned
T9 sequence (Q9TTA5 221-940 limits assumed): as the sequence (Q9TTA5 221-940 H814A limits assumed) above, with A594H counted along it

[10] = target: T10, ADAAD (Active DNA-dependent ATPase A domain) (Bos taurus, UniProt Q9TTA5, S778A); test: intrinsic tryptophan fluorescence titration (ex […] nm, em […] nm), one-site fit
T10 construct: gene SMARCAL1; ATPase domain fragment of bovine SMARCAL1 (RecA-like domains 1 and 2), plasmid pCP101 (pET-14b, NdeI/XhoI), E. coli BL21(DE3), Ni-NTA then DEAE-sepharose; tag removal not mentioned
T10 sequence (Q9TTA5 221-940 S778A limits assumed): as the sequence (Q9TTA5 221-940 H814A limits assumed) above, with S558A, A594H counted along it

[11] = target: T11, ADAAD (Active DNA-dependent ATPase A domain) (Bos taurus, UniProt Q9TTA5, F727A); test: as above
T11 construct: gene SMARCAL1; ATPase domain fragment of bovine SMARCAL1 (RecA-like domains 1 and 2), plasmid pCP101 (pET-14b, NdeI/XhoI), E. coli BL21(DE3), Ni-NTA then DEAE-sepharose; tag removal not mentioned
T11 sequence (Q9TTA5 221-940 F727A limits assumed): as the sequence (Q9TTA5 221-940 H814A limits assumed) above, with F507A, A594H counted along it

[12] = target: T12, ADAAD (Active DNA-dependent ATPase A domain) (Bos taurus, UniProt Q9TTA5, D811H/H549D); test: as above
T12 construct: gene SMARCAL1; ATPase domain fragment of bovine SMARCAL1 (RecA-like domains 1 and 2), plasmid pCP101 (pET-14b, NdeI/XhoI), E. coli BL21(DE3), Ni-NTA then DEAE-sepharose; tag removal not mentioned
T12 sequence (Q9TTA5 221-940 H549D/D811H limits assumed): as the sequence (Q9TTA5 221-940 H814A limits assumed) above, with H329D, D591H, A594H counted along it

[13] = target: T13, ADAAD (Active DNA-dependent ATPase A domain) (Bos taurus, UniProt Q9TTA5, R812A); test: as above
T13 construct: gene SMARCAL1; ATPase domain fragment of bovine SMARCAL1 (RecA-like domains 1 and 2), plasmid pCP101 (pET-14b, NdeI/XhoI), E. coli BL21(DE3), Ni-NTA then DEAE-sepharose; tag removal not mentioned
T13 sequence (Q9TTA5 221-940 R812A limits assumed): as the sequence (Q9TTA5 221-940 H814A limits assumed) above, with R592A, A594H counted along it

T1 sequence (Q9TTA5 221-940 R815A limits assumed): as the sequence (Q9TTA5 221-940 H814A limits assumed) above, with A594H, R595A counted along it

Kd [1]: 1200 nM
Kd [2]: 1600 nM
Kd [3]: 1300 nM
Kd [4]: 1700 nM
Kd [5]: 1000 nM
Kd [6]: 1200 nM
Kd [7]: 3200 nM
Kd [8]: 1000 nM
Kd [10]: 1900 nM
Kd [11]: 1600 nM
Kd [12]: 2800 nM
Kd [13]: 1600 nM
Compound: Nc1ncnc2c1ncn2[C@@H]1O[C@H](COP(=O)(O)OP(=O)(O)OP(=O)(O)O)[C@@H](O)[C@H]1O [ATP]
intrinsic tryptophan fluorescence titration (ex 295 nm, em 340 nm) [9]: Representative fluorescence spectra of ADAAD titrated with (A). ATP; (B) DNA.

— paper PMC6019379, “RecA-like domain 2 of DNA-dependent ATPase A domain, a SWI2/SNF2 protein, mediates conformational integrity and ATP hydrolysis” (Bioscience Reports, 2018)
